Experimental data from US7094911B2, “Biphenyl and biphenyl-analogous compounds as integrin antagonists” (Bayer Aktiengesellschaft, priority 1998, dated 2006).

melting point	SMILES
111 °C (dec.)	COc1ccc(-c2cccc(NC(=O)NCc3ccc(C(F)(F)F)cc3)c2)cc1S(=O)(=O)N[C@H](CC(=O)O)c1ccccc1 [Example 4.90]
> 240 °C	COc1ccc(-c2cccc(NC(=O)NCc3ccc(C(F)(F)F)cc3)c2)cc1S(=O)(=O)NC(CC(=O)O)c1ccccc1 (stereo not drawn) [Example 4.102]
158 °C	COc1ccc(-c2ccc(NC(=O)NCc3ccccn3)cc2)cc1S(=O)(=O)NC(CC(=O)O)c1ccccc1 (stereo not drawn) [Example 4.69]
> 200 °C	COc1ccc(-c2cccc(NC(=O)c3ncc[nH]3)c2)cc1S(=O)(=O)NC(CC(=O)O)c1ccccc1 (stereo not drawn) [Example 19.5]
207 °C	Cc1cc(C)c(S(=O)(=O)NC(Cc2cccc(-c3cccc(NC(=O)Nc4ccncc4)c3)c2)C(=O)O)c(C)c1 (stereo not drawn) [Example 1.194]
> 240 °C	Cc1cc(C)c(S(=O)(=O)N[C@@H](Cc2ccc(-c3cccc(NC(=O)c4cccnc4)c3)cc2)C(=O)O)c(C)c1 [Example 19.4]
214 °C	Cc1cc(C)c(S(=O)(=O)NC(Cc2cccc(-c3cccc(NC(=O)NC4CC4)c3)c2)C(=O)O)c(C)c1 (stereo not drawn) [Example 1.191]
> 240 °C	O=C(O)[C@H](Cc1ccc(-c2cccc(CNc3ccccn3)c2)cc1)NS(=O)(=O)c1c(Cl)cccc1Cl [Example 18.13]
> 240 °C	COc1ccc(-c2cccc(CNc3nc4ccccc4[nH]3)c2)cc1S(=O)(=O)NC(CC(=O)O)c1ccccc1 (stereo not drawn) [Example 18.5]
213 °C	Cc1cc(C)c(S(=O)(=O)N[C@@H](Cc2ccc(-c3cccc(NC(=O)Nc4nc5ccc(C)cc5o4)c3)cc2)C(=O)O)c(C)c1 [Example 1.196]
256 °C (dec.)	Cc1cc(C)c(S(=O)(=O)N[C@@H](Cc2ccc(-c3cccc(NC(=O)/N=c4\[nH]c5ccc(C(=O)O)cc5[nH]4)c3)cc2)C(=O)O)c(C)c1 [Example 1.189]
202 °C	Cc1cc(C)c(S(=O)(=O)N[C@@H](Cc2ccc(-c3cccc(NC(=O)N=c4[nH]c5cc(C)c(C)cc5[nH]4)c3)cc2)C(=O)O)c(C)c1 [Example 1.190]
234 °C	COc1ccc(-c2cccc(NC(=O)c3ccc[nH]3)c2)cc1S(=O)(=O)NC(CC(=O)O)c1ccccc1 (stereo not drawn) [Example 19.3]
140 °C (dec.)	Cc1cc(C)c(S(=O)(=O)N[C@@H](Cc2ccc(-c3cccc(NC(=O)c4ccc[nH]4)c3)cc2)C(=O)O)c(C)c1 [Example 19.2]
158 °C	C[C@@H](NS(=O)(=O)c1cccc(-c2cccc(NC(=O)N=c3[nH]c4ccccc4[nH]3)c2)c1)C(=O)O [Example 4.83]
234 °C	COc1ccc(-c2ccc(NC(=O)NC3CC3)cc2)cc1S(=O)(=O)NC(CC(=O)O)c1ccccc1 (stereo not drawn) [Example 4.76]
209 °C	COc1ccc(-c2ccc(NC(=O)N=c3[nH]c4ccccc4[nH]3)cc2)cc1S(=O)(=O)NC(CC(=O)O)c1ccccc1 (stereo not drawn) [Example 4.74]
122 °C (dec.)	CCCCNC(=O)Nc1cccc(-c2ccc(OC)c(S(=O)(=O)N[C@H](CC(=O)O)c3ccccc3)c2)c1 [Example 4.87]
147 °C	COc1ccc(-c2cccc(NC(=O)NCC(F)(F)C(F)(F)F)c2)cc1S(=O)(=O)NC(CC(=O)O)c1ccccc1 (stereo not drawn) [Example 4.85]
154 °C	Cc1cc(C)c(S(=O)(=O)N[C@@H](Cc2ccc(-c3cccc(NC(=O)NCc4ccc(C(F)(F)F)cc4)c3)cc2)C(=O)O)c(C)c1 [Example 1.212]
204 °C (dec.)	O=C(O)CNS(=O)(=O)c1cccc(-c2cccc(Nc3c(NC4CC4)c(=O)c3=O)c2)c1 [Example 13.2]

melting point	SMILES
125 °C	CCCCNC(=O)Nc1ccc(-c2ccc(OC)c(S(=O)(=O)NC(CC(=O)O)c3ccccc3)c2)cc1 (stereo not drawn) [Example 4.65]
210 °C (dec.)	CS(=O)(=O)N[C@@H](Cc1ccc(-c2cccc(Nc3c(NC4CC4)c(=O)c3=O)c2)cc1)C(=O)O [Example 13.9]
184 °C	CN(CC(=O)O)S(=O)(=O)c1cccc(-c2cccc(NC(=O)N=c3[nH]c4ccccc4[nH]3)c2)c1 [Example 6.13]
190 °C	CCCCNC(=O)Nc1cccc(-c2ccc(OC)c(S(=O)(=O)NC(CC(=O)O)c3ccccc3)c2)c1 (stereo not drawn) [Example 4.63]
> 250 °C	CCNC(=O)Nc1cccc(-c2ccc(OC)c(S(=O)(=O)NC(CC(=O)O)c3ccccc3)c2)c1 (stereo not drawn) [Example 4.73]
> 240 °C	Cc1cc(C)c(S(=O)(=O)N[C@@H](Cc2ccc(-c3cccc(CNc4nc5ccccc5[nH]4)c3)cc2)C(=O)O)c(C)c1 [Example 18.4]
184 °C	CCCN/C(=N\C#N)Nc1cccc(-c2ccc(C[C@H](NS(=O)(=O)c3c(C)cc(C)cc3C)C(=O)O)cc2)c1 [Example 10.6]
138 °C	Cc1cc(C)c(S(=O)(=O)N[C@@H](Cc2ccc(-c3cccc(NC(=O)NCCSC(F)(F)F)c3)cc2)C(=O)O)c(C)c1 [Example 1.207]
169 °C	C[C@@H](NS(=O)(=O)c1cccc(-c2cccc(NC(=O)Nc3ccncc3)c2)c1)C(=O)O [Example 4.84]
202 °C	O=C(Nc1cccc(-c2ccc(C[C@H](NS(=O)(=O)CCCC(F)(F)F)C(=O)O)cc2)c1)NC1CC1 [Example 1.162]
190 °C (dec.)	Cc1cc(C)c(S(=O)(=O)N[C@@H](Cc2ccc(-c3cccc(Nc4nc5ccccc5[nH]4)c3)cc2)C(=O)O)c(C)c1 [Example 16.1.3, (2S)-3-[3′-(1H-benzimidazol-2-ylamino)[1,1′-biphenyl]-4-yl]-2-[(mesitylsulfonyl)amino]propanoic acid]
202 °C	Cc1cc(C)c(S(=O)(=O)N[C@@H](Cc2ccc(-c3cccc(NC(=O)Nc4nncs4)c3)cc2)C(=O)O)c(C)c1 [Example 1.204]
163 °C	O=C(NCc1ccccc1)Nc1cccc(-c2ccc(C[C@H](NS(=O)(=O)CCCC(F)(F)F)C(=O)O)cc2)c1 [Example 1.161]
189 °C	Cc1cc(C)c(S(=O)(=O)N[C@@H](Cc2ccc(-c3cccc(NC(=O)Nc4cc(C)on4)c3)cc2)C(=O)O)c(C)c1 [Example 1.208]
170 °C	CC1(C)[C@H]2CCC1(CS(=O)(=O)N[C@@H](Cc1ccc(-c3cccc(N/C(=C/[N+](=O)[O-])NCc4cccnc4)c3)cc1)C(=O)O)C(=O)C2 [Example 12.8]
151 °C (dec.)	CC1(C)[C@H]2CCC1(CS(=O)(=O)N[C@@H](Cc1ccc(-c3cccc(N/C(=C/[N+](=O)[O-])NC4CCC4)c3)cc1)C(=O)O)C(=O)C2 [Example 12.9]
209 °C	COc1ccc(-c2cccc(NC(=O)N=c3[nH]cc[nH]3)c2)cc1S(=O)(=O)NC(CC(=O)O)c1ccccc1 (stereo not drawn) [Example 4.86]
170 °C	O=C(O)CC(NS(=O)(=O)c1cccc(-c2cccc(NC(=O)Nc3nc4ccccc4[nH]3)c2)c1)c1cccnc1 (stereo not drawn) [Example 4.41]
226 °C (dec.)	Cc1cc(C)c(S(=O)(=O)N[C@@H](Cc2ccc(-c3cccc(Nc4c(NCc5ccccc5)c(=O)c4=O)c3)cc2)C(=O)O)c(C)c1 [Example 13.4]
> 240 °C	COc1ccc(-c2cccc(NC(=O)Nc3nccs3)c2)cc1S(=O)(=O)NC(CC(=O)O)c1ccccc1 (stereo not drawn) [Example 4.99]
156 °C	CCCCNC(=O)Nc1cccc(-c2ccc(OC)c(S(=O)(=O)N[C@@H](CC(=O)O)c3ccccc3)c2)c1 [Example 4.96]
